Assay results as given in US20240383870A1, “HETEROCYCLIC ALDEHYDE TRAPPING COMPOUNDS AND USES THEREOF” (Aldeyra Therapeutics, Inc., priority 2021, published 2024).

What was measured:
Assay type in all cases: in vivo
Conditions in all cases: 200 mpk PO; LPS-challenged mice, plasma at 6.5 h; unpaired t-test vs vehicle
[1] = test system: IL-15; assay: Acute LPS-induced sepsis in C57BL/6 mice: IL-15 cytokine detection assay
[2] = test system: M-CSF (CSF1); assay: Acute LPS-induced sepsis in C57BL/6 mice: M-CSF (CSF1) cytokine detection assay
Description: FIG. 24 is a graph showing the results of an M-CSF (CSF1) cytokine detection assay in samples collected from mouse subjects after administration of compounds of the present disclosure. M-CSF causes hematopoietic stem cells to differentiate into macrophages.
(§1) The primary objective of this study was to collect plasma samples of lipopolysaccharide (LPS) challenged C57BL/6 mice after dose of test compounds to provide a cytokine profile as impacted by prophylactic treatments. This study models acute sepsis, which is a systemic inflammatory syndrome initiated by Gram-negative and Gram-positive bacteria and fungi which infect the lungs, abdomen, bloodstream, and renal or genitourinary tracts. Sepsis patients ultimately die of multiorgan failure which is caused by extensive tissue hypo-oxygenation due to ongoing microvascular leakage, disseminated intravascular coagulation, compromised energy production, and metabolic alterations. Sepsis is characterized by an early systemic inflammatory response phase featuring symptoms, such as tachycardia, fever, hyperventilation, and activation of the complement and coagulation cascades. However, it is now appreciated that a compensatory anti-inflammatory response phase follows, characterized by neuroendocrine-mediated immunosuppression. Since these processes are the result of interaction between cells of inflammation and organs, investigation of the treatment of this syndrome requires the use of intact animal models. The use of ten mice per group allows useful statistical modelling of the results.
(§2) For the data shown in Table 2A, 103 mice (female, 18-22 gram, C57BL/6) were purchased from ENVIGO. The mice were housed in 20 cages of 5 mice per cage with 1 cage of 3 mice as extra. The cages had filter tops and autoclaved bedding, and the animals were placed in quarantine with daily inspection. The treatment groups are detailed in Table 2A below. 10 mice were included in each group. The mice were dosed by oral gavage (PO) at 10 ml/kg as per the table below. MC=methyl cellulose.
as §2, with “2B, 185” for “2A, 103”, “37” for “20”, “cage.” for “cage with 1 cage of 3 mice as extra.”, “2B” for “2A”, “(P0)” for “(PO)”
(§3) At T=0 h, the mice were dosed with one of the test compounds as described in the above table.
(§4) At T=0.5 h, the mice were injected IP with 1.5 mg/kg […] (Sigma).
(§5) At T=6.5 h, all mice were anesthetized and exsanguinated into pre-chilled EDTA-treated tubes. The blood was processed to plasma which was stored in labeled 0.5 polypropylene snap-cap tubes (0.5 mL Eppendorf Safe-Lock Tubes (Fisher Scientific) at −80° C.
(§6) Preparation of vehicle: 1.0 gram of methyl cellulose (Sigma) was dissolved in 200 mL of water (USP purified) to make a solution of 0.5% methyl cellulose in water. Preparation of LPS solution: 6 mg of LPS (from Escherichia Coli 055:B5, Cat #L2880, Sigma Lot #057m4013) was dissolved in 20 ml of saline to give a LPS solution of 0.3 mg/ml. All mice were injected with 5 ml/kg (1.5 mg/kg) at the scheduled time by intraperitoneal injection.
(§7) A 32-plex cytokine panel was obtained from Eve Technologies. Each cytokine was assessed based against a 7 point curve range in duplicate. The average of the two replicate analyses was used for statistics. Unpaired t-tests were performed using Excel™ contrasting vehicle against each treatment group. One star indicates P<0.05. Two stars indicates P<0.01. Three stars indicates P<0.001. Four stars indicates P<0.0001. Most, but not all, statistically significant results are indicated with star(s).

[3] = test system: IL-3; assay: Acute LPS-induced sepsis in C57BL/6 mice: IL-3 cytokine detection assay
[4] = test system: IL-1α; assay: Acute LPS-induced sepsis in C57BL/6 mice: IL-1α cytokine detection assay
Description: FIG. 5 is a graph showing the results of an IL-1α cytokine detection assay in samples collected from mouse subjects after administration of compounds of the present disclosure.
as §1, with “Since these processes are the result of interaction between cells of inflammation and organs, investigation of the treatment of this syndrome requires the use of intact animal models. The use of ten mice per group allows useful statistical modelling of the results.” left out
(§8) A 32-plex cytokine panel was obtained from Eve Technologies. Each cytokine was assessed based against a 7 point curve range in duplicate. […]

[5] = test system: IL-6; assay: Acute LPS-induced sepsis in C57BL/6 mice: IL-6 cytokine detection assay
Description: FIG. 11 is a graph showing the results of an IL-6 cytokine detection assay in samples collected from mouse subjects after administration of compounds of the present disclosure.
as §1, §2
as §2, with “2B, 185” for “2A, 103”, “37” for “20”, “cage.” for “cage with 1 cage of 3 mice as extra.”, “2B” for “2A”, “(P0)” for “(PO)”
as §3, §4
(§9) At T=6.5 h, all mice were anesthetized and exsanguinated into pre-chilled EDTA-treated tubes. […]
as §8

[6] = test system: MCP-1(CCL2); assay: Acute LPS-induced sepsis in C57BL/6 mice: MCP-1(CCL2) cytokine detection assay
[7] = test system: VEGF; assay: Acute LPS-induced sepsis in C57BL/6 mice: VEGF cytokine detection assay
Description: FIG. 30 is a graph showing the results of a VEGF cytokine detection assay in samples collected from mouse subjects after administration of compounds of the present disclosure.
as §1, with “Since these processes are the result of interaction between cells of inflammation and organs, investigation of the treatment of this syndrome requires the use of intact animal models. The use of ten mice per group allows useful statistical modelling of the results.” left out
as §8

[8] = test system: LIX (CXCL5); assay: Acute LPS-induced sepsis in C57BL/6 mice: LIX (CXCL5) cytokine detection assay
Description: FIG. 22 is a graph showing the results of a LIX (CXCL5) cytokine detection assay in samples collected from mouse subjects after administration of compounds of the present disclosure.
as §1, with “Since these processes are the result of interaction between cells of inflammation and organs, investigation of the treatment of this syndrome requires the use of intact animal models. The use of ten mice per group allows useful statistical modelling of the results.” left out
as §8

[9] = test system: leukemia inhibitory factor (LIF); assay: Acute LPS-induced sepsis in C57BL/6 mice: leukemia inhibitory factor (LIF) cytokine detection assay
Description: FIG. 21 is a graph showing the results of a leukemia inhibitory factor (LIF) cytokine detection assay in samples collected from mouse subjects after administration of compounds of the present disclosure. LIF is an interleukin 6 class cytokine that affects cell growth by inhibiting differentiation.
as §1, §2
as §2, with “2B, 185” for “2A, 103”, “37” for “20”, “cage.” for “cage with 1 cage of 3 mice as extra.”, “2B” for “2A”, “(P0)” for “(PO)”
as §3, §4, §5, §6, §8

[10] = test system: eotaxin; assay: Acute LPS-induced sepsis in C57BL/6 mice: eotaxin cytokine detection assay
[11] = test system: TNFα; assay: Acute LPS-induced sepsis in C57BL/6 mice: TNFα cytokine detection assay
Description: FIG. 29 is a graph showing the results of a TNFα cytokine detection assay in samples collected from mouse subjects after administration of compounds of the present disclosure.
as §1
as §2, with “cellulose. […]” for “cellulose.”
as §8

[12] = test system: IFNγ; assay: Acute LPS-induced sepsis in C57BL/6 mice: IFNγ cytokine detection assay
[13] = test system: IL-13; assay: Acute LPS-induced sepsis in C57BL/6 mice: IL-13 cytokine detection assay
Description: FIG. 17 is a graph showing the results of an IL-13 cytokine detection assay in samples collected from mouse subjects after administration of compounds of the present disclosure.
as §1, §2
as §2, with “2B, 185” for “2A, 103”, “37” for “20”, “cage.” for “cage with 1 cage of 3 mice as extra.”, “2B” for “2A”, “(P0)” for “(PO)”
as §3, §4, §5, §6
A 32-plex cytokine panel was obtained from Eve Technologies. Each cytokine was assessed based against a 7 point curve range in duplicate. The average of the two replicate analyses was used for statistics. […]

[14] = test system: IL-10; assay: Acute LPS-induced sepsis in C57BL/6 mice: IL-10 cytokine detection assay
[15] = test system: IL-9; assay: Acute LPS-induced sepsis in C57BL/6 mice: IL-9 cytokine detection assay
Description: FIG. 13 is a graph showing the results of an IL-9 cytokine detection assay in samples collected from mouse subjects after administration of compounds of the present disclosure.
as §1
as §2, with “cellulose. […]” for “cellulose.”
as §8

[16] = test system: IL-17; assay: Acute LPS-induced sepsis in C57BL/6 mice: IL-17 cytokine detection assay
Description: FIG. 19 is a graph showing the results of an IL-17 cytokine detection assay in samples collected from mouse subjects after administration of compounds of the present disclosure.
as §1
as §2, with “The mice were dosed by oral gavage (PO) at 10 ml/kg as per the table below.” left out
as §2, with “2B, 185” for “2A, 103”, “37” for “20”, “cage.” for “cage with 1 cage of 3 mice as extra.”, “2B” for “2A”, “(P0)” for “(PO)”
as §3, §4, §9, §8

[17] = test system: KC; assay: Acute LPS-induced sepsis in C57BL/6 mice: KC cytokine detection assay
Description: FIG. 20 is a graph showing the results of a KC cytokine detection assay in samples collected from mouse subjects after administration of compounds of the present disclosure.
as §1, §2
as §2, with “2B, 185” for “2A, 103”, “37” for “20”, “cage.” for “cage with 1 cage of 3 mice as extra.”, “2B” for “2A”, “(P0)” for “(PO)”
as §3, §4, §5, §6, §7

**Q.** What does the source list for `CC(O)(c1sc2cc(C(F)(F)F)ccc2c1N)C(F)(F)F` (centres unmarked) [Compound I-3, 2-(3-amino-6-(trifluoromethyl)benzo[b]thiophen-2-yl)-1,1,1-trifluoropropan-2-ol]?
**A.** IL-15: significant cytokine change vs. vehicle [1]: ** (Two stars indicates P<0.01); M-CSF: significant cytokine change vs. vehicle [2]: ** (Two stars indicates P<0.01); IL-3: significant cytokine change vs. vehicle [3]: **** (Four stars indicates P<0.0001); IL-1a: significant cytokine change vs. vehicle [4]: *** (Three stars indicates P<0.001); IL-6: significant cytokine change vs. vehicle [5]: ** (Two stars indicates P<0.01); MCP-1: significant cytokine change vs. vehicle [6]: **** (Four stars indicates P<0.0001); VEGF: significant cytokine change vs. vehicle [7]: * (One star indicates P<0.05); LIX: significant cytokine change vs. vehicle [8]: * (One star indicates P<0.05); LIF: significant cytokine change vs. vehicle [9]: * (One star indicates P<0.05); Eotaxin: significant cytokine change vs. vehicle [10]: ** (Two stars indicates P<0.01); TNFa: significant cytokine change vs. vehicle [11]: ** (Two stars indicates P<0.01); IFNy: significant cytokine change vs. vehicle [12]: **** (Four stars indicates P<0.0001); IL-13: significant cytokine change vs. vehicle [13]: *** (Three stars indicates P<0.001); IL-10: significant cytokine change vs. vehicle [14]: * (One star indicates P<0.05); IL-9: significant cytokine change vs. vehicle [15]: *** (Three stars indicates P<0.001); IL-17: significant cytokine change vs. vehicle [16]: *** (Three stars indicates P<0.001); KC: significant cytokine change vs. vehicle [17]: ** (Two stars indicates P<0.01)
